One assay has as its target T1, Recombinant human renin (Homo sapiens, UniProt P00797).
T1 construct: with trypsin, and isolate the active form (residues 67-406); made in house; host or cells: FreeStyle 293-F cells (transient expression of pcDNA3.1(+)/hREN)
T1 sequence (P00797 67-406): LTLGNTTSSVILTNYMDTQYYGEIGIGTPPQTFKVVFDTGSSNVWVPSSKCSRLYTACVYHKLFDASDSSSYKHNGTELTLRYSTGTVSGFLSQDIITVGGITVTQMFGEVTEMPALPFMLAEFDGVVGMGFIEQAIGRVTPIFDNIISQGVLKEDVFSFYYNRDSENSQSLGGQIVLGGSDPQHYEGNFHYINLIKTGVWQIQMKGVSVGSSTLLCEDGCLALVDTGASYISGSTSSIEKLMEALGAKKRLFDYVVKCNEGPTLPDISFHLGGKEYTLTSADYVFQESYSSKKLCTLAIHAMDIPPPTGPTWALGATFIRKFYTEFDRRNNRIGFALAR
The assay can be described thus: in vitro enzymatic activity of renin inhibitors (fluorescence). The class given is biochemical. Particulars: fluorogenic peptide substrate. From the text:
Test compounds in varying concentrations may be reacted with recombinant human renin in the presence of substrate, e.g., QXL520-γ-Abu-Ile-His-Pro-Phe-His-Leu-Val-Ile-His-Thr-Lys (HiLyteFluo488)-Arg-OH (Anaspec, San Jose, Calif.). The reaction can be followed kinetically using fluorescence (excitation λ=485 nm; emission λ=538 nm). Inhibition constants (IC50) may be calculated by non-linear curve fitting of the compound concentrations and fluorescence intensities to the standard IC50 equation.
Solutions of test compounds in varying concentrations (≦2 mM final concentration) are prepared in dimethyl sulfoxide (DMSO) and then diluted into assay buffer comprising 50 mM Hepes, 1 mM EDTA, 1 mM DTT, 0.1 mg/ml BSA, 0.01% Brij35, pH 7.4. Alternatively, the assay can be performed with a high BSA concentration, wherein the buffer contains an additional 2% BSA.
Recombinant human renin (3 nM final concentration) is added to the dilutions and pre-incubated with the compounds for 10 minutes at 37° C. As described in Examples A-C above, human renin can be obtained by expressing preprorenin (residue 1-406) in mammalian cells, treating the prorenin (residues 24-406) contained in the culture supernatant with trypsin, and isolate the active form (residues 67-406). After pre-incubation, the reaction is initiated with 1 μM of substrate QXL520-γ-Abu-Ile-His-Pro-Phe-His-Leu-Val-Ile-His-Thr-Lys (HiLyteFluo488)-Arg-OH (Anaspec, San Jose, Calif.). The final DMSO in the assay is 5%. The total volume of the reaction mixture is 20 μL, which can be placed on Greiner 384-well small volume plates.
Renin activity may be determined via fluorescence (excitation λ=485 nm; emission λ=538 nm), e.g., on a Molecular Devices SPECTROmax GEMINI XPS. The fluorescence intensity is determined upon the addition of substrate and determined again after incubation at 37° C. for one hour. The fluorescence intensity of a blank (no inhibition) using vehicle alone is also determined. Renin activity is linearly proportional to the change in fluorescence observed (final—initial).
The percent inhibition of renin at a given compound concentration is defined as: 100%×[1−(Fcompound/Fblank)] where Fcompound is the observed fluorescence at a given concentration of test compound and Fblank is the observed fluorescence in the presence of vehicle alone.
The pIC50 value (negative log of the molar concentration of the compound that produces 50% inhibition) of a test compound is calculated by non-linear least squares curve fitting of the equation: Percent Inhibition=100%/(1+(10−pIC50/10 log [I])) to percent inhibition versus compound concentration. The 50% inhibitory concentration (IC50) of a test compound is calculated by raising 10 to the negative pIC50 (10-pIC50).

The target of the next assay is Human DPP-IV (Homo sapiens, UniProt P27487). The assay can be described thus: in vitro enzymatic activity of inhibitors against DPP-IV. The following applies: AP-AFC substrate. The class given is biochemical. How it is done: Solutions of test compounds in varying concentrations ([…]) were prepared in dimethyl sulfoxide (DMSO) and then diluted into assay buffer comprising: 20 mM Tris, pH 7.4; 20 mM KCl; and 0.1 mg/mL BSA. Human DPP-IV (0.1 nM final concentration) was added to the dilutions and pre-incubated for 10 minutes at ambient temperature before the reaction was initiated with A-P-7-amido-4-trifluoromethylcoumarin (AP-AFC; 10 μM final concentration). The total volume of the reaction mixture was 10-100 μL depending on assay formats used (384 or 96 well plates). The reaction was followed kinetically (excitation λ=400 nm; emission λ=505 nm) for 5-10 minutes or an end-point was measured after 10 minutes. Inhibition constants (IC50) were calculated from the enzyme progress curves using standard mathematical models.
Chain of Human DPP-IV (P27487 whole entry): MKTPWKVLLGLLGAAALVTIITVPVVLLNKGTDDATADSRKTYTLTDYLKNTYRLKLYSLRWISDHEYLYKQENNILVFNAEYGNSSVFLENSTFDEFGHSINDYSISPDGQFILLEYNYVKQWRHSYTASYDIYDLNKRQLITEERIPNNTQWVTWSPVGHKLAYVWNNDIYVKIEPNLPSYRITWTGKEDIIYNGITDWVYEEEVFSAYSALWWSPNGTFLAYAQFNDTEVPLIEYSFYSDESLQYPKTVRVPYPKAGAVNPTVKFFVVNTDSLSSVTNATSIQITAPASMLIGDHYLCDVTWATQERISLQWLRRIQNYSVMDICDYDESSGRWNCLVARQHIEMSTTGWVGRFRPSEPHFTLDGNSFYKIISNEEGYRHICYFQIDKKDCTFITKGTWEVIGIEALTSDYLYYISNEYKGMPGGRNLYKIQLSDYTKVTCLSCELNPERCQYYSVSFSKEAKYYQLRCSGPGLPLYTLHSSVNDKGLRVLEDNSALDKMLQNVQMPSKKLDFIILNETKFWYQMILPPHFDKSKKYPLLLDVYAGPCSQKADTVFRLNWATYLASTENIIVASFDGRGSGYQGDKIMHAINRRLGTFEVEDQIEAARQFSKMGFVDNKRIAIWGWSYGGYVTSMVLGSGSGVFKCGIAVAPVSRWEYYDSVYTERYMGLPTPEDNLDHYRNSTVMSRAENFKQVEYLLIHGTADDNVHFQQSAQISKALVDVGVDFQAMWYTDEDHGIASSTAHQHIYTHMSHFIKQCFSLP

In general, IC50 refers to the point on the concentration scale where inhibition reaches its midpoint. In the case of “6-(aminomethyl)-5-(2-bromo-5-fluorophenyl)-7-(4-(ethylamino)phenylthio)-1,3-dimethylpyrido[2,3-d]pyrimidine-2,4(1H,3H)-dione [Compound 69]”, the IC50 is 10 to 100 µM on Recombinant human renin and < 1 µM against Human DPP-IV.
`COc1ccc(Oc2cccc(-c3c(CN)c(NCc4ccc5ccccc5c4)nc4c3c(=O)n(C)c(=O)n4C)c2)cc1` [Compound 60, 6-(Aminomethyl)-5-(3-(4-methoxyphenoxy)phenyl)-1,3-dimethyl-7-(naphthalen-2-ylmethylamino)pyrido[2,3-d]pyrimidine-2,4(1H,3H)-dione]: the IC50 on Recombinant human renin lay in the range of 1 to 10 µM; on Human DPP-IV, 10 to 100 µM.
With `CCOc1cc(OCC)cc(-c2c(CN)c(NCc3ccc4ccccc4c3)nc3c2c(=O)n(C)c(=O)n3C)c1` [Compound 56, 6-(Aminomethyl)-5-(3,5-diethoxyphenyl)-1,3-dimethyl-7-(naphthalen-2-ylmethylamino)pyrido[2,3-d]pyrimidine-2,4(1H,3H)-dione], the IC50 on Recombinant human renin and against Human DPP-IV was > 100 µM each time.
As for `COc1ccc(F)cc1-c1c(CN)c(NCc2cccc(OCc3ccccc3)c2)nc2c1c(=O)n(C)c(=O)n2C` [Compound 82, 6-(aminomethyl)-7-(3-(benzyloxy)benzylamino)-5-(5-fluoro-2-methoxyphenyl)-1,3-dimethylpyrido[2,3-d]pyrimidine-2,4(1H,3H)-dione], the IC50 on Recombinant human renin was 1 to 10 µM; against Human DPP-IV it was < 1 µM.
On the same counts, the results for `CCCOc1cc(OCCC)cc(-c2c(CN)c(NCc3ccc4ccccc4c3)nc3c2c(=O)n(C)c(=O)n3C)c1` [Compound 67, 6-(Aminomethyl)-5-(3,5-dipropoxyphenyl)-1,3-dimethyl-7-(naphthalen-2-ylmethylamino)pyrido[2,3-d]pyrimidine-2,4(1H,3H)-dione] are 10 to 100 µM and > 100 µM.
On the same counts, the results for `COc1cc(OC)cc(-c2c(CN)c(NCc3cccc(-n4cccc4)c3)nc3c2c(=O)n(C)c(=O)n3C)c1` [Compound 85, 7-(3-(1H-pyrrol-1-yl)benzylamino)-6-(aminomethyl)-5-(3,5-dimethoxyphenyl)-1,3-dimethylpyrido[2,3-d]pyrimidine-2,4(1H,3H)-dione] are 1 to 10 µM and > 100 µM.
On the same counts, the results for `COc1cc(OC)cc(-c2c(CN)c(NCc3ccc4ccccc4c3)nc3c2c(=O)n(C)c(=O)n3C)c1` [Compound 57, 6-(aminomethyl)-5-(3,5-dimethoxyphenyl)-1,3-dimethyl-7-(naphthalen-2-ylmethylamino)pyrido[2,3-d]pyrimidine-2,4(1H,3H)-dione] are 1 to 10 µM and > 100 µM.
For the compound `Cn1c(=O)c2c(-c3nc4ccccc4s3)c(CN)c(NCc3ccc4ccccc4c3)nc2n(C)c1=O` [Compound 62, 6-(Aminomethyl)-5-(benzo[d]thiazol-2-yl)-1,3-dimethyl-7-(naphthalen-2 ylmethylamino)pyrido[2,3-d]pyrimidine-2,4(1H,3H)-dione], the IC50 at Recombinant human renin and on Human DPP-IV was > 100 µM throughout.
`CCCOc1ccc(OCCC)c(-c2c(CN)c(NCc3ccc4ccccc4c3)nc3c2c(=O)n(C)c(=O)n3C)c1` [Compound 65, 6-(Aminomethyl)-5-(2,5-dipropoxyphenyl)-1,3-dimethyl-7-(naphthalen-2-ylmethylamino)pyrido[2,3-d]pyrimidine-2,4(1H,3H)-dione]: the IC50 at Recombinant human renin is 10 to 100 µM; against Human DPP-IV, > 100 µM.
As to `Cn1c(=O)c2c(-c3cc(F)ccc3Br)c(CN)c(NC(Cc3ccccc3)c3ccccc3)nc2n(C)c1=O` (stereo not drawn) [Compound 91, 6-(Aminomethyl)-5-(2-bromo-5-fluorophenyl)-7-(1,2-diphenylethylamino)-1,3-dimethylpyrido[2,3-d]pyrimidine-2,4(1H,3H)-dione], the IC50 at Recombinant human renin was 1 to 10 µM; against Human DPP-IV, < 1 µM.
Taken in the same sequence, the figures for `Cn1c(=O)c2c(-c3cccc(OCc4cncs4)c3)c(CN)c(NCc3ccc4ccccc4c3)nc2n(C)c1=O` [Compound 79, 6-(aminomethyl)-1,3-dimethyl-7-(naphthalen-2-ylmethylamino)-5-(3-(thiazol-5-ylmethoxy)phenyl)pyrido[2,3-d]pyrimidine-2,4(1H,3H)-dione] were 1 to 10 µM and 10 to 100 µM.
With `COc1ccc(F)cc1-c1c(CN)c(NCc2ccccc2C(F)(F)F)nc2c1c(=O)n(C)c(=O)n2C` [Compound 87, 6-(Aminomethyl)-5-(5-fluoro-2-methoxyphenyl)-1,3-dimethyl-7-(2-(trifluoromethyl)benzylamino)pyrido[2,3-d]pyrimidine-2,4(1H,3H)-dione], the figures for the IC50 at Recombinant human renin and on Human DPP-IV were 1 to 10 µM and < 1 µM, respectively.
On to `CC(C)COc1ccc(Cl)cc1-c1c(CN)c(NCc2ccc3ccccc3c2)nc2c1c(=O)n(C)c(=O)n2C` [Compound 88, 6-(Aminomethyl)-5-(5-chloro-2-isobutoxyphenyl)-1,3-dimethyl-7-(naphthalen-2-ylmethylamino)pyrido[2,3-d]pyrimidine-2,4(1H,3H)-dione], for which the IC50 at Recombinant human renin and against Human DPP-IV was 1 to 10 µM in each case.
Take `COc1ccc(-c2c(CN)c(NCc3ccc4ccccc4c3)nc3c2c(=O)n(C)c(=O)n3C)cc1OC` [Compound 61, 6-(Aminomethyl)-5-(3,4-dimethoxyphenyl)-1,3-dimethyl-7-(naphthalen-2-ylmethylamino)pyrido[2,3-d]pyrimidine-2,4(1H,3H)-dione]: the IC50 was in the range of 1 to 10 µM on Recombinant human renin and 10 to 100 µM against Human DPP-IV.
Consider `Cn1c(=O)c2c(-c3ccccc3Oc3ccccc3)c(CN)c(NCc3ccc4ccccc4c3)nc2n(C)c1=O` [Compound 63, 6-(Aminomethyl)-1,3-dimethyl-7-(naphthalen-2-ylmethylamino)-5-(2-phenoxyphenyl)pyrido[2,3-d]pyrimidine-2,4(1H,3H)-dione], for which the IC50 at Recombinant human renin and against Human DPP-IV was 1 to 10 µM in each case.
`Cn1c(=O)c2c(-c3cccc(F)c3)c(CN)c(NCc3ccc4ccccc4c3)nc2n(C)c1=O` [Compound 90, 6-(Aminomethyl)-5-(3-fluorophenyl)-1,3-dimethyl-7-(naphthalen-2-ylmethylamino)pyrido[2,3-d]pyrimidine-2,4(1H,3H)-dione]: the IC50 on Recombinant human renin and at Human DPP-IV was 1 to 10 µM throughout.
Turning to `COc1ccc(F)cc1-c1c(CN)c(NCc2ccc3ccccc3c2)nc2c1c(=O)n(C)c(=O)n2C` [Compound 70, 6-(aminomethyl)-5-(5-fluoro-2-methoxyphenyl)-1,3-dimethyl-7-(naphthalen-2-ylmethylamino)pyrido[2,3-d]pyrimidine-2,4(1H,3H)-dione], the figures for the IC50 on Recombinant human renin and at Human DPP-IV were 1 to 10 µM and < 1 µM, respectively.
For `Cn1c(=O)c2c(-c3cccc(O)c3)c(CN)c(NCc3ccc4ccccc4c3)nc2n(C)c1=O` [Compound 80, 6-(aminomethyl)-5-(3-hydroxyphenyl)-1,3-dimethyl-7-(naphthalen-2-ylmethylamino)pyrido[2,3-d]pyrimidine-2,4(1H,3H)-dione], the IC50 lay within 1 to 10 µM on Recombinant human renin and 10 to 100 µM against Human DPP-IV.

The values above are taken from US8133898B2, “Renin inhibitors” (Takeda Pharmaceutical Company Limited, priority 2008, dated 2012).
